We go through 11 molecules from PubChem BioAssay (NCI).

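Briefly, cells in 96-well plates were exposed to five compound concentrations for 48 h, and endpoints were estimated by linear interpolation. TGI: concentration producing complete growth inhibition.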 Where a SMILES comes first, the peptide text is derived from it. [ ]: non-standard residue; d: D form. The star is where a group is joined. ξ: configuration not given here. ξD = NC(CC(=O)O)C(=O)O; Ac3c = NC1(C(=O)O)CC1; Boc = CC(C)(C)OC(=O)*; OtBu = CC(C)(C)O*

Test systems include SK-MEL-2 melanoma; MDA-MB-231 breast; SK-OV-3 ovarian; MCF7 breast; COLO 205 colon; DU-145 prostate; NCI-H23 lung; ACHN renal; T-47D breast; NCI/ADR-RES ovarian; MDA-N; A549 NSCLC.
Holding throughout (assay): NCI-60 cell line screen, 48 h

In the case of `COC(=O)C1(NC(=O)C(CC(=O)OC(C)(C)C)NC(=O)OC(C)(C)C)CC1` (configuration not stated) (Boc-[ξD](OtBu)-[Ac3c]-OMe), the TGI in the assay with SK-MEL-2 melanoma, with MDA-MB-231 breast, in the assay with SK-OV-3 ovarian, in the assay with MCF7 breast, with COLO 205 colon and with DU-145 prostate was above 100 µM each time. In addition, the TGI in the assay with NCI-H23 lung, in the assay on ACHN renal, in the assay on T-47D breast, in the assay on NCI/ADR-RES ovarian, in the assay on MDA-N and in the assay on A549 NSCLC was above 100 µM each time.
For the molecule `COC(=O)/C(=C\c1ccco1)P(=O)(OC)OC`, the TGI was 83.4 µM with SK-MEL-2 melanoma; above 100 µM in the assay with MDA-MB-231 breast; above 100 µM in the assay on SK-OV-3 ovarian; above 100 µM in the assay on MCF7 breast; above 100 µM in the assay on COLO 205 colon; above 100 µM in the assay with DU-145 prostate. The TGI in the assay on NCI-H23 lung, with ACHN renal, in the assay with T-47D breast, in the assay on NCI/ADR-RES ovarian, in the assay with MDA-N and in the assay with A549 NSCLC was above 100 µM each time.
On to `CCCCc1ccc(-n2sc3ncccc3c2=O)cc1`, for which the TGI is 43.9 µM with SK-MEL-2 melanoma; 32 µM in the assay with MDA-MB-231 breast; 90.5 µM in the assay with SK-OV-3 ovarian; 72.2 µM in the assay on MCF7 breast; 33.3 µM in the assay with COLO 205 colon; above 100 µM in the assay with DU-145 prostate. Further, the TGI was 41.9 µM in the assay on NCI-H23 lung; 23.5 µM with ACHN renal; 45.7 µM with T-47D breast; 43.9 µM with NCI/ADR-RES ovarian; 29.3 µM in the assay with MDA-N; 99.4 µM in the assay on A549 NSCLC.
Consider `CC(C)C(C/C=C1/CC(CO)(COC(=O)C2CCCCC2)OC1=O)C(C)C` (configuration not stated), for which the TGI in the assay on SK-MEL-2 melanoma was above 100 µM; with MDA-MB-231 breast it was 37.4 µM; in the assay on SK-OV-3 ovarian, above 100 µM; in the assay with MCF7 breast, 36.3 µM; in the assay with COLO 205 colon, 20.9 µM; in the assay with DU-145 prostate, 28.8 µM. Besides, the TGI in the assay on NCI-H23 lung was 35.9 µM; in the assay on ACHN renal, 30.2 µM; in the assay with T-47D breast, 45.9 µM; in the assay on NCI/ADR-RES ovarian it was 42.7 µM; in the assay on MDA-N it was 38.8 µM; in the assay with A549 NSCLC, 26.4 µM.
On to `COc1ccc(/C(=N/Nc2nc3ccccc3[nH]2)C(=O)O)cc1`, for which the TGI with SK-MEL-2 melanoma, in the assay with MDA-MB-231 breast, with SK-OV-3 ovarian, in the assay on MCF7 breast, in the assay on COLO 205 colon and with DU-145 prostate was above 100 µM in each case. Also, the TGI with NCI-H23 lung, in the assay with ACHN renal, with T-47D breast, in the assay with NCI/ADR-RES ovarian, with MDA-N and in the assay with A549 NSCLC was above 100 µM throughout.
Take `CCOC(=O)/C(C#N)=C(/NNc1ccccc1)c1ccncc1C(=O)O`: the TGI was above 100 µM in the assay with SK-MEL-2 melanoma; above 100 µM in the assay with MDA-MB-231 breast; above 100 µM in the assay on SK-OV-3 ovarian; above 100 µM with MCF7 breast; 22.5 µM with COLO 205 colon; above 100 µM in the assay on DU-145 prostate. For the same molecule, the TGI with NCI-H23 lung, with ACHN renal, with T-47D breast, in the assay on NCI/ADR-RES ovarian, with MDA-N and with A549 NSCLC was above 100 µM each time.
As for `COc1ccc2c(-c3ccc(OCCN(C)C)cc3)c(Oc3ccc(Cl)cc3)c(=O)oc2c1`, the TGI in the assay on SK-MEL-2 melanoma is 19.1 µM; in the assay on MDA-MB-231 breast, 33.5 µM; with SK-OV-3 ovarian, 29.3 µM; in the assay on MCF7 breast it was 6.12 µM; with COLO 205 colon, 10.5 µM; in the assay on DU-145 prostate, 32.7 µM. For the same molecule, the TGI in the assay on NCI-H23 lung is above 54.2 µM; in the assay with ACHN renal it was 20.9 µM; in the assay on T-47D breast, above 100 µM; with NCI/ADR-RES ovarian, above 62.5 µM; in the assay on MDA-N, 4.39 µM; in the assay with A549 NSCLC, 18.7 µM.
As to `ONC1=Nc2ccccc2OCc2cc(Br)c(Br)cc2COc2ccccc2N=C1NO`, the TGI in the assay with SK-MEL-2 melanoma is 38.7 µM; with MDA-MB-231 breast, 35.5 µM; in the assay on SK-OV-3 ovarian, above 53.1 µM; with MCF7 breast it was above 44.7 µM; with COLO 205 colon, 21.5 µM; with DU-145 prostate it was 29.3 µM. Also, the TGI with NCI-H23 lung is 44.5 µM; in the assay with ACHN renal, above 43.3 µM; with T-47D breast, 31.1 µM; in the assay on NCI/ADR-RES ovarian it was above 53.7 µM; in the assay on MDA-N, 34.1 µM; in the assay on A549 NSCLC, above 54 µM.
As for `CCOC(=O)C(NC(=O)CC)(Nc1ccc(S(=O)(=O)Nc2nc(C)cc(C)n2)cc1)C(F)(F)F` (configuration not stated), the TGI in the assay with SK-MEL-2 melanoma, in the assay with MDA-MB-231 breast, in the assay on SK-OV-3 ovarian, in the assay on MCF7 breast, with COLO 205 colon and in the assay on DU-145 prostate was above 100 µM in each case. Besides, the TGI in the assay on NCI-H23 lung, with ACHN renal, in the assay on T-47D breast, with NCI/ADR-RES ovarian, in the assay with MDA-N and with A549 NSCLC was above 100 µM throughout.
As to `CCOC(=O)c1c(N2CCOCC2)[nH]c(=O)c(C(c2cccs2)c2c(O)c(C(=O)OCC)c(N3CCOCC3)[nH]c2=O)c1O`, the TGI in the assay on SK-MEL-2 melanoma, in the assay on MDA-MB-231 breast, in the assay on SK-OV-3 ovarian, in the assay on MCF7 breast, in the assay with COLO 205 colon and in the assay with DU-145 prostate was above 100 µM in each case. Besides, the TGI in the assay with NCI-H23 lung, in the assay on ACHN renal, with T-47D breast, with NCI/ADR-RES ovarian, in the assay on MDA-N and in the assay with A549 NSCLC was above 100 µM in each case.
`O=C(N/N=C/c1ccc(Cl)cc1)c1cc(I)cc(I)c1O`: the TGI with SK-MEL-2 melanoma, with MDA-MB-231 breast, in the assay with SK-OV-3 ovarian, in the assay on MCF7 breast, with COLO 205 colon and in the assay on DU-145 prostate was above 100 µM throughout. The TGI in the assay with NCI-H23 lung, in the assay with ACHN renal, with T-47D breast, in the assay with NCI/ADR-RES ovarian, in the assay on MDA-N and in the assay on A549 NSCLC was above 100 µM in each case.
